{"source": "patent US9987296B2", "about": "“Compositions including anthocyanin or anthocyanidin for the prevention or treatment of Articular cartilage-associated conditions” (priority 2008, dated 2018)", "key": {"[1]": {"tested_on": "IGF-1", "experiment": "IGF-1 gene expression in human synovial explants", "format": "cell-based", "conditions": "for IGF-1 gene expression and production: synovial explants, together with glucose, overall conclusion", "protocol": "Synovial explants (N=6) were harvested from human donors undergoing either uni-compartmental or total knee replacement. In all but the first experiment, the specimens were trimmed of extraneous adipose tissue and washed in low glucose DMEM (1 g/l). The specimens in the first experiment were not trimmed of excess adipose tissue and were washed in high-glucose DMEM (4.5 g/L).\nIn the first experiment (n=2), the specimens were cultured for 48 hours in 0.1% calf serum and either high- or low-glucose DMEM. In the second tow experiments (n=4), the specimens were cultured for 48 hours in serum-free ITS (Insulin, Transferrin, Selenium) media diluted with either high- or low-glucose DMEM. IGF-1 gene expression. Briefly, total RNA was extracted from synovial tissue using RNeasy Total RNA Kit (Qiagen, Inc., Santa Clarita, Calif.). Real-time quantitative RT-PCR was done using Taqman RT-PCR reagents (Applied Biosystems, Foster City, Calif.).\n(§1) Expression of IGF-1 was normalized to that of the housekeeping gene GAPDH. IGF-1 ELISA. Human IGF-1 protein secretion into the culture media was measured by ELISA (RD Systems, Minneapolis, Minn.). Synovial culture media was centrifuged to remove any particulates. Controls and samples were added to ELISA wells which were pre-coated with a monoclonal antibody specific for IGF-1. Any IGF-1 present would be expected to be bound by the immobilized antibody. After washing away any unbound substances, an enzyme-linked polyclonal antibody specific for IGF-1 was added to the wells. Following a wash to remove any unbound antibody-enzyme reagent. a substrate solution was added to the wells. The medial developed a color intensity in proportion to the amount of IGF-1 bound in the initial step. Optical density of each well was determined by using a microplate reader set to 450 nm. IGF-1 activity obtained by serial dilution of known protein concentrations.\n(§2) Synovial explants (n=6) were harvested from human donors undergoing total knee replacement. The specimens were trimmed of extraneous adipose tissue. In the two experiments, the synovial specimens were washed in low-glucose DMEM (1 g/L) for a few hours and then placed in the assigned treatment groups. In subsequent experiments the synovial specimens were washed in low-glucoses DMEM for 24 hours before treatment.\n(§3) In all experiments (n=4), the specimens were cultured for 48 hours in serum-free ITS (Insulin, Transferrin, Selenium) media diluted with either high- or low-glucose DMEM. In addition, various anthocyanins were added to both the high- and low-glucose groups. Low-glucose alone acted as a control group. After the two experiments, the level of media was adjusted relative to the weight of the tissue.\nBriefly, total RNA was extracted from synovial tissue using RNeasy Total RNA Kit (Qiagen Inc., Santa Clarita, Calif.). Real-time quantitative RT-PCR was done using ‘ragman RT-PCR. reagents (Applied Biosystems, Foster City, Calif.). Expression of IGF-1 was normalized to that of the housekeeping gene GAPDH. The results of IGF-1 gene expression are only presented if detectable levels of low glucose alone were present and able to serve as a control group for relative-fold change in expression."}, "[2]": {"tested_on": "IGF-1", "experiment": "IGF-1 ELISA of culture media of human synovial explants", "format": "cell-based", "conditions": "for IGF-1 protein release in media: high vs low glucose", "protocol": "as §2, §3\nas §1, with “Human IGF-1” for “Expression of IGF-1 was normalized to that of the housekeeping gene GAPDH. IGF-1 ELISA. Human IGF-1”, “by ELISA (R & D Systems, Minneapolis,” for “by ELISA (RD Systems, Minneapolis,”, “unbound antibody-enzyme reagent, a substrate” for “unbound antibody-enzyme reagent. a substrate”, “wells. The media developed a” for “wells. The medial developed a”, “nm. IGF-1 concentration in the sample was calculated by a standardized curve of IGF-I activity obtained” for “nm. IGF-1 activity obtained”"}, "[3]": {"conditions": "FIG. 22, volume titrated to tissue weight, in high glucose"}, "[4]": {"conditions": "increasing glucose concentration, synovial tissue"}}, "note": "“Also recorded” adds a separate entry of the source.", "data": [{"compound": "Oc1cc(O)c2cc(O)c(-c3ccc(O)c(O)c3)[o+]c2c1", "note": "[Cyanidin chloride]", "values": [{"measurement": "IGF-1 gene expression relative to low glucose alone", "setting": "[1]; FIG. 27, in the presence of high glucose", "result": "highest expression levels"}, {"measurement": "IGF-1 gene expression and production", "setting": "[1]", "result": "elevate IGF-1 gene expression and production"}, {"measurement": "IGF-1 protein levels in media", "setting": "[2]; FIG. 21, 7 ml of media regardless of sample weight, with High Glucose, listed as Cyanidin", "result": "highest IGF-1 protein levels"}, {"measurement": "IGF-1 protein levels in media", "setting": "[2]; FIG. 21, 7 ml of media regardless of sample weight, with High Glucose, listed as cyanidin", "result": "highest levels of IGF-1 in media"}, {"measurement": "IGF-1 protein levels in media", "setting": "[2]; FIG. 22, volume titrated to tissue weight, combined with low glucose, listed as Cyanidin", "result": "greatest effect"}, {"measurement": "IGF-1 protein levels in media", "setting": "[2]; FIG. 22, volume titrated to tissue weight, combined with low glucose, listed as cyanidin", "result": "greatest production of IGF-1 protein levels"}, {"measurement": "IGF-1 protein levels in media", "setting": "[2]; [3]", "result": "inhibitory"}, {"measurement": "level of IGF-1 protein in media", "setting": "[2]; FIG. 26, lower anthocyanin concentration (5 mM), in the presence of low glucose", "result": "highest level of IGF-1 protein"}]}, {"compound": "OC[C@H]1O[C@@H](Oc2cc3c(O)cc(O)cc3[o+]c2-c2ccc(O)c(O)c2)[C@H](O)[C@@H](O)[C@@H]1O.[Cl-]", "note": "[Kuromanin chloride]", "values": [{"measurement": "IGF-1 gene expression", "setting": "[1]; FIG. 24, in the presence of high glucose", "result": "inhibitory"}, {"measurement": "IGF-1 gene expression relative to low glucose alone", "setting": "[1]; FIG. 24, in the presence of low glucose", "result": 3, "unit": "fold"}, {"measurement": "IGF-1 gene expression and production", "setting": "[1]", "result": "elevate IGF-1 gene expression and production"}, {"measurement": "IGF-1 protein levels in media", "setting": "[2]; FIG. 22, volume titrated to tissue weight, combined with low glucose, listed as Kuromanin", "result": "greatest effect"}, {"measurement": "IGF-1 protein levels in media", "setting": "[2]; FIG. 22, volume titrated to tissue weight, combined with low glucose, listed as kuromanin", "result": "greatest production of IGF-1 protein levels"}, {"measurement": "IGF-1 protein levels in media", "setting": "[2]; [3]", "result": "inhibitory"}]}, {"compound": "O=C[C@H](O)[C@@H](O)[C@H](O)[C@H](O)CO", "note": "[glucose]", "values": [{"measurement": "IGF-1 gene expression relative to low glucose alone", "setting": "[1]; FIG. 24, High glucose alone", "result": "over 4 fold"}, {"measurement": "IGF-1 gene expression relative to low glucose alone", "setting": "[1]; FIG. 27, High Glucose alone, grossly inflamed sample (RH)", "result": "highest expression levels"}, {"measurement": "increase in IGF-1 gene expression compared to low glucose alone", "setting": "[1]; FIG. 28, High Glucose alone", "result": 12, "unit": "fold"}, {"measurement": "increase of IGF-1 gene expression", "setting": "[1]; high (4.5 g/L) vs low (1 g/L) glucose, 48 hours, three donors", "result": "up to 5 fold"}, {"measurement": "IGF-1 gene expression", "setting": "[1]; [4]", "result": "increase both IGF-1 gene expression and IGF-1 release; also recorded: significantly increase; also recorded: consistently increased IGF-1 gene expression"}, {"measurement": "level of IGF-1 protein in media", "setting": "[2]; FIG. 23, volume titrated to tissue weight, High Glucose alone (highest level)", "result": "above 2.00 ng/ml"}, {"measurement": "level of IGF-1 protein in media", "setting": "[2]; FIG. 25, volume titrated to tissue weight, High Glucose alone", "result": "highest level of IGF-1 protein"}, {"measurement": "level of IGF-1 protein in media", "setting": "[2]; FIG. 26, High Glucose alone", "result": "highest level of IGF-1 protein"}, {"measurement": "IGF-I protein expression", "setting": "[2]; High Glucose alone, across the experiments of Example 7", "result": "most consistent increase in IGF-I protein expression"}, {"measurement": "IGF-1 levels in media, on average", "setting": "[2]; high (4.5 g/L) vs low (1 g/L) glucose, 48 hours, 6 donors", "result": "more than doubled"}, {"measurement": "increase of IGF-1 in media, tissue that responded the most", "setting": "[2]; high glucose, donor undergoing unicompartmental arthroplasty", "result": 5, "unit": "×"}, {"measurement": "IGF-1 protein release in media", "setting": "[2]; four donors", "result": "significant response"}, {"measurement": "IGF-1 protein release in media", "setting": "[2]; two donors", "result": "no effect on IGF-1 protein release in media"}, {"measurement": "IGF-1 secretion", "setting": "[2]; [4]", "result": "increase both IGF-1 gene expression and IGF-1 release; also recorded: increased IGF-1 secretion in synovial tissue, but in a donor dependent fashion"}]}]}
